Calls of active or inactive are those of the source. No cut-off for these calls is given here.
What follows are compounds tested against Xanthine dehydrogenase/oxidase (Homo sapiens, UniProt P47989) (assay: Inhibition of xanthine oxidase (unknown origin) using xanthine as substrate incubated for 15 mins followed by substrate addition by spectrophotometric analysis).
Sequence of Xanthine dehydrogenase/oxidase (P47989 whole entry): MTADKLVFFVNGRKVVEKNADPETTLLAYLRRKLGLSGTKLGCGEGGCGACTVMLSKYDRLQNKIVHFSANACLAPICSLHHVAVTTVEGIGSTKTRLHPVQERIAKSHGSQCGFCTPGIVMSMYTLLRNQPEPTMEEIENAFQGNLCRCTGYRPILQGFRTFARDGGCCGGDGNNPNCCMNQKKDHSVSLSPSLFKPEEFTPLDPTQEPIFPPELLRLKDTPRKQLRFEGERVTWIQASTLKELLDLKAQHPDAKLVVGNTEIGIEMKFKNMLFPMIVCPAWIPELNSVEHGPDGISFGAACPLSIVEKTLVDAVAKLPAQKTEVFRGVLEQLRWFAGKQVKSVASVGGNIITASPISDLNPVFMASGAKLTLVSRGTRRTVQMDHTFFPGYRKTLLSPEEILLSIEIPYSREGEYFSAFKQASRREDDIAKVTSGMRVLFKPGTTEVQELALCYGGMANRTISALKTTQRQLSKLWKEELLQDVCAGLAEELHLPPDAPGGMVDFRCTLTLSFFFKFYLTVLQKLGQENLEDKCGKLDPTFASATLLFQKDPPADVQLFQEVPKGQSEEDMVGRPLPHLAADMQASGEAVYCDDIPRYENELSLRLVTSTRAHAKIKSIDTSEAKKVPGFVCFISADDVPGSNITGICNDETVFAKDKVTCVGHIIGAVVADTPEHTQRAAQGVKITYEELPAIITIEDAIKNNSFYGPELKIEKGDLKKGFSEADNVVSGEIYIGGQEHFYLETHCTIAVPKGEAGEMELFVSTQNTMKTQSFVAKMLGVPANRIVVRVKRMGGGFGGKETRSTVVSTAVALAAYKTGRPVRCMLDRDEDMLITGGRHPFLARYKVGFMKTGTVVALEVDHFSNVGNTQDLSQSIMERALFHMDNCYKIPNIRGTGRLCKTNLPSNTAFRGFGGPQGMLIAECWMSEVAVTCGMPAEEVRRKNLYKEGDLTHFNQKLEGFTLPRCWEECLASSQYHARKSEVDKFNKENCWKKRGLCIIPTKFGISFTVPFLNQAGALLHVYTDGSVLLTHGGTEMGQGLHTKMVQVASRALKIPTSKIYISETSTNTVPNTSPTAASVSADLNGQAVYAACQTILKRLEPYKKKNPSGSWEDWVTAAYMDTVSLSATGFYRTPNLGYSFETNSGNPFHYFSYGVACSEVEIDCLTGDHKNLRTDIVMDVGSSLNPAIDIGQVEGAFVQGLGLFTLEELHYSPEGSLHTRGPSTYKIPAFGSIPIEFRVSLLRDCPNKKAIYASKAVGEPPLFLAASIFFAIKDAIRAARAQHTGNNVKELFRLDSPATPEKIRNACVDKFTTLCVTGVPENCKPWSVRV

| IC50 [µM] | Structure (SMILES) |
| --- | --- |
| > 10 | N#Cc1cn(C2CCCC2)c2cc(NC(=O)c3cc(=O)[nH]cn3)ccc12 |
| > 10 | C=CCn1cc(C#N)c2ccc(NC(=O)c3cc(=O)[nH]cn3)cc21 |
| > 10 | CC(C)Cn1cc(C#N)c2ccc(NC(=O)c3cc(=O)[nH]cn3)cc21 |
| > 10 | N#Cc1cn(CC2CC2)c2cc(NC(=O)c3cc(=O)[nH]cn3)ccc12 |

The remaining lines, values behind:

| Structure (SMILES) | IC50 [µM] |
| --- | --- |
| Cc1nc(C(=O)Nc2ccc3c(C#N)cn(C4CCCC4)c3c2)cc(=O)[nH]1 | > 10 |
| CC(C)(C)c1ccc(Cn2cc(C#N)c3cc(NC(=O)c4cc(=O)[nH]cn4)ccc32)cc1 | > 10 |
| COc1ccnc(-c2ccc3c(c2)c(C#N)cn3C(C)C)n1 | > 10 |
| CC(C)n1cc(C#N)c2ccc(NC(=O)c3cc(=O)[nH]cn3)cc21 | > 10 |
| Cc1nc(-c2ccc(OCC(C)C)c(C#N)c2)sc1C(=O)O [FEBUXOSTAT] | 0.023 |
| CC(C)=CCn1cc(C#N)c2ccc(NC(=O)c3cc(=O)[nH]cn3)cc21 | > 10 |

These compounds were tested on Rattus norvegicus (assay: Anti-hyperuricemic activity against potassium oxonate-induced acute hyperuricemia Sprague-Dawley rat model assessed as reduction in serum uric acid level at 10 mg/kg, po pretreated with potassium oxonate for 1 hr followed by compound treatment and measured after 8 hrs).
Assay type: functional, organism-based

| Structure (SMILES) | Activity |
| --- | --- |
| CC(C)n1cc(C#N)c2cc(-c3nccc(O)n3)ccc21 | Active |
| N#Cc1cn(C2CCCC2)c2ccc(NC(=O)c3cc(=O)[nH]cn3)cc12 | Active |
| Cc1nc(-c2ccc(OCC(C)C)c(C#N)c2)sc1C(=O)O [FEBUXOSTAT] | Active |
| Oc1ncnc2[nH]ncc12 | Active |

Reference: ChEMBL document CHEMBL5143516, “Design, synthesis, and biological evaluation of N-(3-cyano-1H-indol-5/6-yl)-6-oxo-1,6-dihydropyrimidine-4-carboxamides and 5-(6-oxo-1,6-dihydropyrimidin-2-yl)-1H-indole-3-carbonitriles as novel xanthine oxidase inhibitors” (Eur J Med Chem, 2022)
